In ChEMBL document CHEMBL1201862, “PubChem BioAssay data set” (2004):
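Five concentrations, 48 hours, 96-well plates. GI50 marks 50% less growth.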 Active and inactive are the calls of the source. Rule as the data show it: active = GI50 up to about 1.1 µM and inactive = higher.

How the values were obtained:
Test in all cases: NCI-60 cell line screen, 48 h
[1] = system: HT-29
[2] = system: NCI-H460
[3] = system: A498
[4] = system: UO-31
[5] = system: MCF7
[6] = system: SNB-75
[7] = system: SF-268
[8] = system: HCT-116
[9] = system: NCI-H23
[10] = system: SN12C
[11] = system: COLO 205
[12] = system: SF-295
[13] = system: SNB-19
[14] = system: HCC 2998
[15] = system: RPMI-8226
[16] = system: A549
[17] = system: CCRF-CEM
[18] = system: KM12
[19] = system: SK-MEL-5
[20] = system: CAKI-1
[21] = system: LOX IMVI
[22] = system: EKVX
[23] = system: NCI/ADR-RES
[24] = system: HL-60
[25] = system: M19-MEL
[26] = system: SK-MEL-28
[27] = system: NCI-H522
[28] = system: HOP-62
[29] = system: UACC-62
[30] = system: OVCAR-8
[31] = system: NCI-H226
[32] = system: DLD-1
[33] = system: U-251
[34] = system: DMS-273
[35] = system: OVCAR-3
[36] = system: SF-539
[37] = system: SK-OV-3
[38] = system: Malme-3M
[39] = system: UACC-257
[40] = system: SK-MEL-2
[41] = system: RXF 393
[42] = system: IGROV-1
[43] = system: KM-20L2
[44] = system: K562
[45] = system: OVCAR-5
[46] = system: SW-620
[47] = system: HOP-92
[48] = system: HOP-18
[49] = system: MOLT-4
[50] = system: HCT-15
[51] = system: XF498
[52] = system: ACHN
[53] = system: LXFL 529
[54] = system: OVCAR-4
[55] = system: M14
[56] = system: DMS-114
[57] = system: TK-10
[58] = system: 786-0
[59] = system: SNB-78

SMILES: COc1cc(C2c3cc4c(cc3[C@@H](Nc3ccc5c(c3)OCO5)C3COC(=O)[C@H]23)OCO4)cc(OC)c1O (stereo partly specified)
- GI50 [1]: 1.24 µM (inactive)
- GI50 [2]: < 0.01 µM (active)
- GI50 [3]: 0.333 µM (active)
- GI50 [4]: 0.382 µM (active)
- GI50 [5]: 0.175 µM (active)
- GI50 [6]: 0.991 µM (active)
- GI50 [7]: 0.953 µM (active)
- GI50 [8]: 0.74 µM (active)
- GI50 [9]: 0.303 µM (active)
- GI50 [10]: 0.643 µM (active)
- GI50 [11]: 1.68 µM (inactive)
- GI50 [12]: 0.213 µM (active)
- GI50 [13]: 0.299 µM (active)
- GI50 [14]: 1.42 µM (inactive)
- GI50 [15]: 0.774 µM (active)
- GI50 [16]: 0.0294 µM (active)
- GI50 [17]: 0.0641 µM (active)
- GI50 [18]: 1.79 µM (inactive)
- GI50 [19]: 0.63 µM (active)
- GI50 [20]: 0.152 µM (active)
- GI50 [21]: 0.456 µM (active)
- GI50 [22]: 2.45 µM (inactive)
- GI50 [23]: 0.482 µM (active)
- GI50 [24]: 0.043 µM (active)
- GI50 [25]: 1.65 µM (inactive)
- GI50 [26]: 3.43 µM (inactive)
- GI50 [27]: 1.06 µM (active)
- GI50 [28]: 0.177 µM (active)
- GI50 [29]: 0.322 µM (active)
- GI50 [30]: 1.38 µM (inactive)
- GI50 [31]: 0.217 µM (active)
- GI50 [32]: 1.55 µM (inactive)
- GI50 [33]: 0.185 µM (active)
- GI50 [34]: 0.105 µM (active)
- GI50 [35]: 2.9 µM (inactive)
- GI50 [36]: 0.324 µM (active)
- GI50 [37]: 1.25 µM (inactive)
- GI50 [38]: 1.42 µM (inactive)
- GI50 [39]: 0.507 µM (active)
- GI50 [40]: 2.4 µM (inactive)
- GI50 [41]: 1.09 µM (active)
- GI50 [42]: 2.49 µM (inactive)
- GI50 [43]: 2.24 µM (inactive)
- GI50 [44]: 0.721 µM (active)
- GI50 [45]: 2.74 µM (inactive)
- GI50 [46]: 1.2 µM (inactive)
- GI50 [47]: 0.424 µM (active)
- GI50 [48]: 0.766 µM (active)
- GI50 [49]: < 0.0136 µM (active)
- GI50 [50]: 0.336 µM
- GI50 [51]: 1.64 µM (inactive)

SMILES: CCc1cccc(C)c1NC(=O)CC(=O)NNC(N)=S
- GI50 [1]: > 100 µM (inactive)
- GI50 [2]: > 100 µM (inactive)
- GI50 [4]: > 100 µM (inactive)
- GI50 [52]: > 100 µM (inactive)
- GI50 [6]: > 100 µM (inactive)
- GI50 [7]: > 100 µM (inactive)
- GI50 [9]: > 100 µM (inactive)
- GI50 [10]: > 100 µM (inactive)
- GI50 [11]: > 100 µM (inactive)
- GI50 [12]: > 100 µM (inactive)
- GI50 [13]: > 100 µM (inactive)
- GI50 [14]: > 100 µM (inactive)
- GI50 [15]: > 100 µM (inactive)
- GI50 [16]: > 100 µM (inactive)
- GI50 [53]: > 100 µM (inactive)
- GI50 [17]: > 100 µM (inactive)
- GI50 [18]: > 100 µM (inactive)
- GI50 [19]: > 100 µM (inactive)
- GI50 [20]: > 100 µM (inactive)
- GI50 [21]: > 100 µM (inactive)
- GI50 [22]: > 100 µM (inactive)
- GI50 [54]: > 100 µM (inactive)
- GI50 [24]: > 100 µM (inactive)
- GI50 [55]: > 100 µM (inactive)
- GI50 [56]: > 100 µM (inactive)
- GI50 [26]: > 100 µM (inactive)
- GI50 [57]: > 100 µM (inactive)
- GI50 [27]: > 100 µM (inactive)
- GI50 [28]: > 100 µM (inactive)
- GI50 [30]: > 100 µM (inactive)
- GI50 [58]: > 100 µM (inactive)
- GI50 [31]: > 100 µM (inactive)
- GI50 [32]: > 100 µM (inactive)
- GI50 [33]: > 100 µM (inactive)
- GI50 [34]: > 100 µM (inactive)
- GI50 [35]: > 100 µM (inactive)
- GI50 [37]: > 100 µM (inactive)
- GI50 [38]: > 100 µM (inactive)
- GI50 [39]: > 100 µM (inactive)
- GI50 [41]: > 100 µM (inactive)
- GI50 [43]: > 100 µM (inactive)
- GI50 [44]: > 100 µM (inactive)
- GI50 [45]: > 100 µM (inactive)
- GI50 [46]: > 100 µM (inactive)
- GI50 [47]: > 100 µM (inactive)
- GI50 [48]: > 100 µM (inactive)
- GI50 [49]: > 100 µM (inactive)
- GI50 [50]: > 100 µM
- GI50 [51]: > 100 µM (inactive)
- GI50 [59]: > 100 µM (inactive)
